Reference: PMC7932521, “2-aminobenzimidazoles for leishmaniasis: From initial hit discovery to in vivo profiling” (PLoS Neglected Tropical Diseases, 2021)
≈ marks a conversion by molar mass, not a printed value. Read-outs that look alike come from different tables or passages of the source.

How the values were obtained:
[1] = tested on: Leishmania infantum MHOM/MA(BE)/67/ITMAP263 amastigotes; experiment: L. infantum intracellular amastigote assay in PMM; assay type: cell-based; details: for SI: selectivity index (CC50 / IC50): CC50 / L. infantum IC50; for IC50: read-out: L. infantum IC50
Procedure: (§1) Leishmania infantum MHOM/MA(BE)/67/ITMAP263 amastigotes were collected from the spleen of infected donor Golden hamsters. Primary peritoneal mouse macrophages (PMM) were used as host cells for in vitro assays. PMM were collected from Swiss mice after 2 days of peritoneal stimulation with a 2% suspension of potato starch and maintained in RPMI-1640 medium supplemented with 200 mM L-glutamine, antibiotics and 5% FCS at 37°C and 5% CO2. Promastigotes of L. infantum chagasi (luciferase) (MHOM/BR/2005/NLC) obtained as described in Reimão et al.,[27] were grown in M199 medium supplemented with 10% FCS, 0.25% hemin, 32 μg/ml hygromycin and 2% sterile human urine at 25°C and 5% CO2.
(§2) Stock solutions of the compounds at 20 mM were prepared in 100% DMSO. Next, the compounds were serially pre-diluted in DMSO followed by a further dilution in demineralized water to assure a final in-test DMSO concentration below 1%. The compounds were tested at 4-fold dilutions starting at 64 μM.
For the antileishmania in vitro assays, 3×10^4 PMM/well were seeded in 96-well plates. After 24h, 5×10^5 amastigotes/well were added and incubated for 2h at 37°C. Next, the compounds in 4-fold serial dilutions were added and the plates were further incubated for 5 days (37°C, 5% CO2). Parasite burdens were assessed using an inverted microscope after Giemsa staining. The results were expressed as percent reduction in parasite burdens compared to negative control wells (100% growth) and IC50 values were determined. Values represent the geometric mean of at least two independent experiments. Miltefosine was used as the positive control in all plates.

[2] = tested on: PMM (Primary Mouse Macrophages); experiment: Cytotoxicity on primary peritoneal mouse macrophages; assay type: cell-based; details: read-out: PMM IC50
Procedure: as §1, §2

[3] = Mouse liver microsomal stability; assay type: in vitro ADME
Procedure: The metabolic stability of the compounds was evaluated in human (pool of 200 donors, XenoTech) and mouse liver microsomes (CD1 mouse, GIBCO). Test compounds were prepared at a concentration of 0.5 μM and incubated with 0.25 mg/mL liver microsomes at pH 7.4 and 37°C. The reaction was started by addition of NADPH at […]. Samples were taken at 0, 5, 10, 15, 20 and 30 minutes. The reaction was stopped by the addition of acetonitrile:methanol (1:1) containing an internal standard (tolbutamide at 50 nM). Compounds were quantified by liquid chromatography triple quadrupole mass spectrometry (LC-MS/MS). Peak area ratios (analyte/internal standard) were converted to % remaining using the area ratio at time 0 as 100%. Half-life (t1/2 = ln(2)/k) in minutes and intrinsic clearance (Clint = k x 1000/(0.25)) in μL/min/mg were calculated using a non-linear regression from % remaining versus incubation time. From this plot, the slope (k) was determined. The analysis conditions were: analytical column (Gemini C18, […], Phenomenex), electrospray ionization source (ESI) in positive and negative mode, mobile phase A (water + 0.1% formic acid) and B (acetonitrile + 0.1% formic acid), flow rate of 0.7 mL/min.

[4] = MRC-5 cytotoxicity; assay type: cell-based; details: human, MRC-5 cells; S1 Data
[5] = Parallel artificial membrane permeability assay (PAMPA); assay type: in vitro ADME; details: S1 Data; for Papp at 5 h, 10 μM: PAMPA, read-out: PAMPA Pe
Procedure: To determine the passive permeability of the compounds, a 96-well plate containing membranes pre-coated with lipids (Corning Gentest # 353015) was used. The solutions of the compounds were prepared by diluting the stock solutions (10mM) in phosphate buffered saline (PBS) pH 6.5 at a final concentration of 10μM. The solutions diluted in PBS pH 6.5 were then added to the donor portion of the plate (300 μl/well), while PBS pH 7.4 (200 μl/well) was added to the acceptor portion. The two portions of the plate were then coupled, and the system was incubated for 5 h at 37°C. At the end of the incubation, samples were collected from the donor and acceptor plates, and then added to plates containing quench solution (10% water and 90% methanol: acetonitrile (50:50) + 50 nM tolbutamide). The final concentrations of compounds in the donor, acceptor, and initial solution (T0) wells were analyzed using LC-MS/MS. The results were used to calculate an effective permeability (Pe) value. The PAMPA assay was performed in triplicate (n = 3).

[6] = Experimental distribution coefficient (eLogD); assay type: physicochemical
Procedure: To determine the lipophilicity of the compounds, a methodology based on the retention time of molecules in reverse stationary phase (Ascentis RP-Amide HPLC column) was used. The chromatogram was obtained using LC-MS/MS. Test compounds were prepared at 1.0 μg/mL by adding the stock solution at (1:1) mobile phases A:B + internal standard at 200nM (A: 5% methanol in 10mM ammonium acetate pH 7.4, B: 100% methanol), DMSO concentration must be lower than 2%. […] The retention time (in minutes) of each of the eight standards was plotted against their LogD values. The resulting equation for the calibration curve (y = mx + b) was used to calculate the LogD values for the test compounds.

[7] = Kinetic solubility; assay type: physicochemical; details: for solubility kinetic at 24 h: PBS buffer pH 7.4, aqueous buffer, kinetic from dmso stock, PBS pH 7.4, read-out: KS PBS - pH7.4
Procedure: The precipitates on the incubation plate were removed by centrifugation (15 min, 3000 rpm, r.t.); the compound concentration in the resulting supernatant was determined by LC-MS/MS. Results were calculated as the concentration of remaining compound in solution after incubation.

[8] = tested on: MRC-5 cells; experiment: MRC-5 cytotoxicity; assay type: cell-based; details: S1 Data
[9] = Leishmania infantum, 120 h, intracellular amastigotes in PMM, 5 days
[10] = reverse stationary phase HPLC column (Ascentis RP-Amide), pH 7.4, S1 Data
[11] = intracellular amastigotes in PMM, 5 days

| Compound | SI: selectivity index (CC50 / IC50) [1] | IC50 [1, 9] | IC50 ([1]; Leishmania infantum, S1 Data) | IC50 ([2]; Mus musculus, Macrophage) | MLM CLint ([3]; S1 Data) | CC50 [4] | Papp at 5 h, 10 μM [5] | chromatographic logD [6, 10] | solubility kinetic at 24 h [7] | KS PBS - pH 2 [7] | chromatographic logD ([6]; reverse-phase HPLC retention (Ascentis RP-Amide column), experimental, pH 7.4) | IC50 ([1]; S1 Data) | IC50 [1, 11] | IC50 ([2]; S1 Data) | MLM CLint ([3]; mouse liver microsome intrinsic clearance) | CC50 [8] | PAMPA Pe [5] | eLogD ([6]; S1 Data) | eLogD ([6]; experimental, pH 7.4) | L. infantum IC50 [1, 11] |
| --- | --- | --- | --- | --- | --- | --- | --- | --- | --- | --- | --- | --- | --- | --- | --- | --- | --- | --- | --- | --- |
| CC(C)(C)Cn1c(NC(=O)c2cccnc2)nc2ccc(C#N)cc21 [Compound 41, O=C(Nc1n(CC(C)(C)C)c(c2n1)cc(C#N)cc2)c3cccnc3] | 2 | 8.6 µM | 8.57 µM | 16 µM | 87 µL/min/mg | > 64 µM | 18 ×10⁻⁶ cm/s | 3.9 | – | – | – | – | – | – | – | – | – | – | – | – |
| COCCn1c(NC(=O)c2ccnn2C)nc2ccc(C#N)cc21 [Compound 50, O=C(c1ccnn1C)Nc2nc(ccc(C#N)c3)c3n2CCOC] | 1 | 47 µM | 47 µM | > 64 µM | 98 µL/min/mg | > 64 µM | 14.7 ×10⁻⁶ cm/s | – | 5.98 µg/mL (≈ 18.4 µM) | 7.77 ug/mL | – | – | – | – | – | – | – | – | – | – |
| Cn1nccc1C(=O)Nc1nc2cccnc2n1CC(C)(C)C [Compound 54, CC(Cn1c(NC(=O)c2n(C)ncc2)nc(c13)cccn3)(C)C] | 4 | 7.8 µM | 7.75 µM | 32 µM | 222 µL/min/mg | 43.7 µM | 11.7 ×10⁻⁶ cm/s | 4.04 | – | – | 4 | – | – | – | – | – | – | – | – | – |
| Cn1nccc1C(=O)Nc1nc2cncnc2n1CC(F)(F)F [Compound 55, O=C(c1ccnn1C)Nc2nc(cncn3)c3n2CC(F)(F)F] | 2 | 4 µM | 4.03 µM | 8 µM | 24 µL/min/mg | 24.8 µM | 13.6 ×10⁻⁶ cm/s | – | 65 µg/mL (≈ 200 µM) | 64.44 ug/mL | – | – | – | – | – | – | – | – | – | – |
| CCCn1c(NC(=O)Cc2ccc(F)cc2)nc(c13)cc(C(=O)N4CCOCC4)cc3 [Compound 14] | 1 | – | – | – | <23 µL/min/mg | – | – | – | – | – | – | 57 µM | 57 µM | > 64 µM | 23 µL/min/mg | > 64 µM | 7.26 10-6 cm/s | 3.05 | – | – |
| CCCn1c(NC(=O)Cc2ccc(F)cc2)nc(c13)cc(C(=O)N(C)OC)cc3 [Compound 15] | 5 | – | – | – | 128 µL/min/mg | – | – | – | – | – | – | 12.7 µM | 13 µM | > 64 µM | – | 55.5 µM | 9.07 10-6 cm/s | 3.31 | 3.3 | – |
| CCCn1c(NC(=O)Cc2ccc(F)cc2)nc(c13)cc(C(=O)NC4CC4)cc3 [Compound 12] | 1 | – | – | – | 52 µL/min/mg | – | – | – | – | – | – | 45.2 µM | 45 µM | > 64 µM | – | > 64 µM | 13.10 10-6 cm/s | 3.50 | 3.5 | – |
| CCCn1c(NC(=O)Cc2ccc(F)cc2)nc(c13)cc(C(=O)NC)cc3 [Compound 11] | 1 | – | – | – | 66 µL/min/mg | – | – | – | – | – | – | > 64 µM | – | > 64 µM | – | 34.8 µM | 9.18 10-6 cm/s | 3.18 | – | – |
| CCCn1c(NC(=O)Cc2ccc(F)cc2)nc(c13)cc(C(=O)O)cc3 [Compound 10] | 1 | – | – | – | – | – | – | – | – | – | – | > 64 µM | – | > 64 µM | – | > 64 µM | 6.27 10-6 cm/s | 1.83 | – | inactive |
| CCCn1c(NC(=O)Cc2ccc(F)cc2)nc(c13)cc(C(=O)OC)cc3 [Compound 9] | 3 | – | – | – | 1253 µL/min/mg | – | – | – | – | – | – | 6.49 µM | 6.5 µM | 16 µM | – | 18.7 µM | 8.66 10-6 cm/s | 4.04 | – | – |
| O=C(Nc1n(C2CC2)c(c3n1)ccc(F)c3)Cc4ccc(Cl)cc4 [Compound 22] | – | – | – | – | 380 µL/min/mg | – | – | – | – | – | – | 2.54 µM | – | 25.4 µM | – | 21.9 µM | 17.70 10-6 cm/s | 3.98 | – | – |
